Measurements taken from PMC5751249, “Anti-Diabetic Effect of Organo-Chalcogen (Sulfur and Selenium) Zinc Complexes with Hydroxy-Pyrone Derivatives on Leptin-Deficient Type 2 Diabetes Model ob/ob Mice” (International Journal of Molecular Sciences, 2017).

Experiments:
[1] = tested on: type 2 diabetic ob/ob mice; assay: Daily oral treatment of ob/ob mice for 28 days: blood glucose, body weight, water intake; format: in vivo
Method: The anti-diabetic effects of both [Zn(hmpt)2] and [Zn(hmps)2] were examined in ob/ob mice. The ob/ob and +/+ mice were used as type 2 diabetic and normal (non-diabetic) mice, respectively. The ob/ob (10-week-old) and +/+ (10-week-old) mice received daily oral treatment of either Zn complexes dissolved in PEG-400 or PEG-400 only, respectively. The mice received oral treatments of [Zn(hmpt)2] or [Zn(hmps)2] at doses of 2.5–10 mg Zn/kg or 1.0–5.0 mg Zn/kg for 28 days, respectively. Blood glucose levels (BGL) were measured using a Glucocard (Arkray, Kyoto, Japan) just before treatment with the Zn complexes, and the doses were regulated based on the BGL. Over 28 days, BGL, body weight, food intake, and water intake were measured every day. The number of normal mice (+/+ mice), control mice (ob/ob mice), [Zn(hmpt)2]-treated, and [Zn(hmps)2]-treated mice was 6, 8, 8, and 8 in the initial animal experiments, respectively. This was modified to 6, 6, 7, and 8 after the end of experiments as two control mice died naturally by the end of experiments, and one [Zn(hmpt)2]-treated mouse died from an accident during the oral glucose tolerance test.

[2] = tested on: type 2 diabetic ob/ob mice; assay: Oral glucose tolerance test (OGTT) after 28 days treatment; format: in vivo
Method: After treatment with [Zn(hmpt)2] or [Zn(hmps)2] for 28 days, OGTTs were performed. The ob/ob mice and +/+ mice were fasted for 12-h and glucose (1 g/kg body weight) was given orally. Blood samples were obtained from the tail vein at 0, 15, 30, 45, 60, 90, and 120 min after glucose administration. Blood glucose concentrations were measured using a Glucocard.

[3] = tested on: type 2 diabetic ob/ob mice; format: in vivo
Method: (§1) After OGTT, HbA1c levels were measured in blood obtained from the mouse tail vein using an immunoassay with a DCA 2000 analyzer (Bayer-Sankyo Co., Ltd., Tokyo, Japan). The mice were subjected to a 12-h fast and blood samples were collected from the orbital vein or postcaval vein under isoflurane anesthesia using heparinized tools. Collected samples were then centrifuged at 650× g for 10 min at 4 °C, and the resultant plasma samples were used to analyze various biochemical parameters. The levels of AST, ALT, BUN, TG, T-CHO, and ALP in plasma samples were determined using a Fuji Dry Chem system. The plasma levels of insulin and adiponectin were determined using an ultra-sensitive Mouse Insulin ELISA Kit (Morinaga Institute of Biological Science, Inc., Kanagawa, Japan) and an adiponectin immunoassay kit (R&D Systems Inc., Minneapolis, MN, USA), respectively. After collecting the blood samples, mice were subjected to dissection under isoflurane anesthesia, and the resultant tissue samples were washed in saline. Each of the samples was dehydrated for a week in desiccators, weighed, and then heated in 5% HNO3 (5 mL) for 5 h at 110 °C in a closed system. The resultant solution was centrifuged at 1250× g for 15 min, and the supernatant was diluted using 5% HNO3. Both Zn and Se concentrations in organs were determined with an ICP-MS Agilent 7700x/Mass Hunter instrument (Agilent Technologies Inc., Santa Clara, CA, USA). The Zn and Se concentrations in each sample were calculated using linear regression of the standard curves prepared from standard solutions of the respective trace elements.

[4] = Organ distribution of Zn and Se by ICP-MS after 28 days oral treatment; format: in vivo, mice
Method: as §1

[5] = tested on: type 2 diabetic ob/ob mice; assay: Histopathology and morphometric analysis of pancreas and liver (HE staining); format: in vivo; settings: 14-week-old mice
Method: Excised pancreas and liver from 14-week-old mice were immediately fixed in 10% buffered formalin for a week, sectioned at a thickness of 3 μm, and stained with HE for histopathological examination. HE-stained tissue sections were scanned using a Moticam T2 (Shimadzu Co., Kyoto, Japan) to prepare digital images. Both pancreatic islet area and glycogen and fat deposition areas were calculated with the dedicated image processing software WinROOF (Mitani Corp., Tokyo, Japan).

[6] = tested on: type 2 diabetic ob/ob mice; assay: Triglyceride and glycogen contents in the liver; format: in vivo; settings: ob/ob mice after 28 days oral treatment
Method: Lipids in the liver were extracted according to modified Folch method. TG in the extracted lipids was detected using the triglyceride E test wako (Wako Pure Chemicals Co., Osaka, Japan). Glycogen in the liver was extracted with a strong base (30% KOH aq). Then, ethanol precipitation methods (using 95% ethanol and saturated Na2SO4), hydrolysis, and neutralization (with 2.4 M HCl aq and 0.8 M NaOH aq) of the glycogen extracts were performed, resulting in degradation to glucose solution. To detect the glucose levels in the solution using the glucose CII test wako (Wako Pure Chemicals Co., Osaka, Japan), glycogen levels in the liver were estimated. Because the liver sample of normal mice was used up during TG detection and ICP-MS analysis, glycogen content in the liver could not be detected.

[7] = tested on: Isolated male Wistar rat epididymal adipocytes; design: method as in PMID 29843022; settings: 20 μM Zn complex, means ± SDs, three runs; cited from earlier work
male ICR mice = tested on: male ICR mice; design: method as in doi:10.1248/jhs1956.39.4_289; settings: six days per week, 30 days, cited from earlier work

In the case of `Cc1occc(=[Se])c1[O-].Cc1occc(=[Se])c1[O-].[Zn+2]` [[Zn(hmps)2], bis(3-hydroxy-2-methyl-4(H)-pyran-4-seleno)Zn], the “Blood glucose level by the end of treatment” value ([1]; [Zn(hmpt)2] 2.5–10 mg Zn/kg, [Zn(hmps)2] 1.0–5.0 mg Zn/kg) is reported as “approximately 200 mg/dL”, the “Water intake on the final day” value ([1]; control 12.6 ± 1.6 g, p < 0.01 vs. control) is reported as 6.9 ± 0.5 g and the “Body weight change during treatment” value ([1]; loss seen day 22 to 25, recovered after dose reduction) is reported as “Body weight gains”. The “Area under the blood glucose concentration-time curve (AUC) in OGTT” value ([2]; 1 g glucose/kg oral, after 28 days treatment, compared with control mice) was “significantly decreased”, the “Fasting blood glucose level (0 min of OGTT)” value ([2]; ob/ob mice after 28 days oral treatment, 12-h fast, control 237 ± 52 mg/dL) was 172 ± 38 mg/dL and the “ALP (plasma)” value ([3]; mouse, in vivo, po) was 550 ± 89 **^,##,†† U/L. The “ALT (plasma)” value ([3]; mouse, in vivo, po) was 355 ± 138 **^,##,†† U/L, the “AST (plasma)” value ([3]; mouse, in vivo, po) was 200 ± 55 **^,##,†† U/L and the “BUN (plasma)” value ([3]; mouse, in vivo, po) was 24 ± 3 **^,## mg/dL. The “Insulin (fasting plasma)” value ([3]; ob/ob mice after 28 days oral treatment, control 2.2 ± 1.0) was 1.4 ± 0.6 ng/mL, the HbA1c ([3]; ob/ob mice after 28 days oral treatment, control 7.9 ± 0.8) was 6.7 ± 0.4 **^,## % and the “Adiponectin (plasma)” value ([3]; ob/ob mice after 28 days oral treatment, control 8.2 ± 1.1) was 9.0 ± 0.8 µg/mL. The “TG (plasma)” value ([3]; ob/ob mice after 28 days oral treatment, control 83 ± 16) was 87 ± 11 mg/dL, the “T-CHO (plasma)” value ([3]; ob/ob mice after 28 days oral treatment, control 195 ± 16) was 186 ± 16 mg/dL and the “Δ[Zn]/Δ[Se] molar ratio, bone” value ([4]; [Zn(L)] = 1.0, [Zn(L)2] = 0.5) was 6.9. The “Δ[Zn]/Δ[Se] molar ratio, kidney” value ([4]; [Zn(L)] = 1.0, [Zn(L)2] = 0.5) was 0.25, the “Δ[Zn]/Δ[Se] molar ratio, liver” value ([4]; [Zn(L)] = 1.0, [Zn(L)2] = 0.5) was 0.61 and the “Δ[Zn]/Δ[Se] molar ratio, pancreas” value ([4]; [Zn(L)] = 1.0, [Zn(L)2] = 0.5) was 27. The “Se concentration, bone” value ([4]; dry tissue, ob/ob mice after 28 days oral treatment, control 0.5 ± 0.2) was 1.9 ± 0.6 µg/g, the “Se concentration, muscle” value ([4]; dry tissue, ob/ob mice after 28 days oral treatment, control 1.3 ± 0.4) was 2.5 ± 0.4 **^,#,†† µg/g and the “Se concentration, liver” value ([4]; dry tissue, ob/ob mice after 28 days oral treatment, control 2.1 ± 0.3) was 5.1 ± 0.6 µg/g. For the same compound, the “Se concentration, pancreas” value ([4]; dry tissue, ob/ob mice after 28 days oral treatment, control 2.3 ± 0.6) was 3.4 ± 0.8 **^,##,†† µg/g, the “Se concentration, spleen” value ([4]; dry tissue, ob/ob mice after 28 days oral treatment, control 2.7 ± 0.8) was 9.1 ± 2.4 **^,##,†† µg/g and the “Se concentration, kidney” value ([4]; dry tissue, ob/ob mice after 28 days oral treatment, control 6.4 ± 0.2) was 12.7 ± 2.0 **^,##,†† µg/g. The “Zn concentration, liver” value ([4]; dry tissue, ob/ob mice after 28 days oral treatment, control 44 ± 5) was 46 ± 6 ^##^,† µg/g, the “Zn concentration, muscle” value ([4]; dry tissue, ob/ob mice after 28 days oral treatment, control 47 ±10) was 41 ± 2 µg/g and the “Zn concentration, kidney” value ([4]; dry tissue, ob/ob mice after 28 days oral treatment, control 67 ± 3) was 68 ± 4 µg/g. The “Zn concentration, spleen” value ([4]; dry tissue, ob/ob mice after 28 days oral treatment, control 100 ± 17) was 95 ± 12 µg/g, the “Zn concentration, pancreas” value ([4]; dry tissue, ob/ob mice after 28 days oral treatment, control 133 ± 19) was 158 ± 28 µg/g and the “Zn concentration, bone” value ([4]; dry tissue, ob/ob mice after 28 days oral treatment, control 154 ± 7) was 162 ± 10 *^,^†† µg/g. For the same compound, the “Δ[Se], bone” value ([4]; mouse, in vivo, po) was 18 nmol/g, the “Δ[Se], kidney” value ([4]; mouse, in vivo, po) was 81 nmol/g and the “Δ[Se], liver” value ([4]; mouse, in vivo, po) was 38 nmol/g. The “Δ[Se], pancreas” value ([4]; mouse, in vivo, po) was 14 nmol/g, the “Δ[Se], plasma” value ([4]; mouse, in vivo, po) was 6 nmol/g and the “Δ[Zn], bone” value ([4]; mouse, in vivo, po) was 124 nmol/g. The “Δ[Zn], kidney” value ([4]; mouse, in vivo, po) was 20 nmol/g, the “Δ[Zn], liver” value ([4]; mouse, in vivo, po) was 23 nmol/g and the “Δ[Zn], pancreas” value ([4]; mouse, in vivo, po) was 375 nmol/g. For the same compound, the “Δ[Zn], plasma” value ([4]; mouse, in vivo, po) was 6 nmol/g, the “Se concentration, plasma” value ([4]; ob/ob mice after 28 days oral treatment, control 0.6 ± 0.1) was 1.1 ± 0.2 **^,##,†† µg/mL and the “Zn concentration, plasma” value ([4]; ob/ob mice after 28 days oral treatment, control 2.1 ± 0.1) was 2.5 ± 0.2 **^,## µg/mL. For the same compound, the “Pancreatic islet numbers per section” value ([5]; among normal, control and treated mice) was “not significantly changed”, the “Glycogen and fat deposition area ratio in the liver” value ([5]; between control and treated mice) was “no significant differences” and the “Pancreatic islet area ratio and size” value ([5]; compared with normal mice) was “significantly increased”. The “Glycogen content in the liver” value ([6]; control 0.08 ± 0.04) was 0.04 ± 0.01 mg/g liver, the “TG content in the liver” value ([6]; control 437 ± 139) was 443 ± 42 mg/g liver and the “Glucose Uptake” value [7] was 138 ± 6 µg/10^6 Cells.

In the case of `N[C@@H](C[SeH])C(=O)O` (racemic) [D,L-selenocysteine], the Lethality (male ICR mice; oral once daily 30 mg/kg/day (13.9 mg Se/kg/day)) is given as 100% and the Hepatic histology finding (male ICR mice; oral once daily 30 mg/kg/day) is given as “vacuolation of centrilobular and peripheral hepatocytes”.
